According to publication PMC6281421, “Anticancer activity of 2’-hydroxyflavanone towards lung cancer” (Oncotarget, 2018):

How the values were obtained:
[1] = target: T1, recombinant RLIP (RLIP76) (Homo sapiens, UniProt Q15311); experiment: DNP-SG affinity resin binding and elution with free DNP-SG; conditions: 0.2 mM DNP-SG, 10 mM ATP, 10 mM MgCl2; also stimulates the ATPase as allocrite
T1 construct: gene RALBP1; fragments incl; 38 kDa present
T1 sequence (Q15311 1-655): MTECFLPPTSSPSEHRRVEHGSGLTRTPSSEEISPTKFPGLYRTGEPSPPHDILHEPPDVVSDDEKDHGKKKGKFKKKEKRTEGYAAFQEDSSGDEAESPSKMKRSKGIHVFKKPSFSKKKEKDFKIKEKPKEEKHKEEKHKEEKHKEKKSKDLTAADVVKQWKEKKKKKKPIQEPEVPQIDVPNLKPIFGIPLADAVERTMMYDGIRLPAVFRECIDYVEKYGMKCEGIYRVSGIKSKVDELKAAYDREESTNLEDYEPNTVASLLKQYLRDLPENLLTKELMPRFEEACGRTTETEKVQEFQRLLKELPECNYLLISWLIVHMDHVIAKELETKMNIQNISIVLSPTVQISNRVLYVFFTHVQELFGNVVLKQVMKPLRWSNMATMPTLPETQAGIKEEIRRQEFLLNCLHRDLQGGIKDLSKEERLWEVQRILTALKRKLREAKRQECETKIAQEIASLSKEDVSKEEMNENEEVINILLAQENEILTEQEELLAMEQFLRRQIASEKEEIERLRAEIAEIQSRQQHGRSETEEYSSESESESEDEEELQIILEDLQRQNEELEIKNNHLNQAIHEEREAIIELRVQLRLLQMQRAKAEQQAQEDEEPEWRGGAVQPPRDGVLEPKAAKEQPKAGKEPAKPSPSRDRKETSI

[2] = target: T2, Rlip (RLIP76) purified from H358 and H1618 cells (Homo sapiens, UniProt Q15311); experiment: […]-DOX uptake into Rlip proteoliposomes, rapid filtration; type: biochemical; conditions: read-out: % inhibition of DOX transport at 20 μM
T2 construct: gene RALBP1
T2 sequence (Q15311 2-655): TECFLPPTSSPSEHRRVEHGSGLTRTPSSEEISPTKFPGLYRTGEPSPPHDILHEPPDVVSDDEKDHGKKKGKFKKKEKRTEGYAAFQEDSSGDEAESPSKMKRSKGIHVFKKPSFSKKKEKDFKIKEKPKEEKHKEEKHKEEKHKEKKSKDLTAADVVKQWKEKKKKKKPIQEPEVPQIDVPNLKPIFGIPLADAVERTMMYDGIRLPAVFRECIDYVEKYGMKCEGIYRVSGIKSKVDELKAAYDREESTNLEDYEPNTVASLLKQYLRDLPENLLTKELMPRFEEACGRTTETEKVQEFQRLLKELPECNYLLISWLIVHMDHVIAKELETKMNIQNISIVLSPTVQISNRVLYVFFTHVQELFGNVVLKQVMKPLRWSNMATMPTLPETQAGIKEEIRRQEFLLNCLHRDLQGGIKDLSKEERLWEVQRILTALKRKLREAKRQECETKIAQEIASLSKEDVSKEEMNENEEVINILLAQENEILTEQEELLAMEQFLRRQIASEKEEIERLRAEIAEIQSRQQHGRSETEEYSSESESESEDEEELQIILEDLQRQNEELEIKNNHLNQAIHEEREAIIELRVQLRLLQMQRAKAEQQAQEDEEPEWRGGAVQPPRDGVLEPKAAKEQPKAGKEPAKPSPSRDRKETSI

Compound | DNP-SG affinity resin binding and elution with free DNP-SG [1] | inhibition at 20 µM [2] [%]
N[C@@H](CCC(=O)N[C@@H](CSc1ccc([N+](=O)[O-])cc1[N+](=O)[O-])C(=O)NCC(=O)O)C(=O)O [DNP-SG, dinitrophenyl-S-glutathione] | the same major Rlip protein bands were observed in the 2HF eluate as in the DNP-SG eluate | 
O=C1CC(c2ccccc2O)Oc2ccccc21 (centres unmarked) [2HF, 2'-hydroxyflavanone] |  | 22
